Experimental data taken from patent publication US9073876B2, “Flap modulators” (JANSSEN PHARMACEUTICA NV, priority 2013, dated 2015).
pIC50, pKi: −log10 of the molar value.

How the values were obtained:
human FLAP = human FLAP (Homo sapiens (Human), UniProt P20292); experiment: FLAP binding assay (HTRF); conditions: human FLAP-containing membranes, HTRF format; average of two assay plates, duplicates; read-out: FLAP Binding wild type HTRF Ki
In short: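 Binding of compounds to FLAP read out as HTRF ratio. Values are the mean of two assay plates, each sample run in duplicate per plate.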

[1] = tested on: leukotriene pathway in human whole blood (LTB4 levels); experiment: Human whole blood assay (LTB4); type: cell-based; conditions: human whole blood diluted 1:1 in RPMI, stimulated with calcium ionophore A23187; single replicate
In short: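 Blood (heparin) diluted 1:1 RPMI; compound pre-incubation 15 min, 37° Celsius; A23187 7 μg/mL, 30 min, 37° Celsius; plasma LTB4 by commercial kit. IC50 via 4-parameter equation.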

Sequence of human FLAP (P20292 whole entry): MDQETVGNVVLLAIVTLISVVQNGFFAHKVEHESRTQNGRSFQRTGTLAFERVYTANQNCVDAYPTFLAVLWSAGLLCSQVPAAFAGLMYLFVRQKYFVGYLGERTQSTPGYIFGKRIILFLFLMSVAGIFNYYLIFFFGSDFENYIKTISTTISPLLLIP

- pKi (human FLAP): 7.34
- pIC50 [1]: 6.35
SMILES: Nc1cnc(-c2ccc(C3CCC3)c(OCCNc3ccnc(N)n3)c2F)cn1 [Example 332, N^4-(2-(3-(5-Aminopyrazin-2-yl)-6-cyclobutyl-2-fluoro-phenoxy)ethyl)pyrimidine-2,4-diamine]
